Experimental data from ChEMBL document CHEMBL3085683, “Quinones bearing non-steroidal anti-inflammatory fragments as multitarget ligands for Alzheimer's disease” (Bioorg Med Chem Lett, 2013).
Active and inactive are the calls of the source. The calls are words filed in the database; no cut-off is given here.

Legend:
[1] = biological target: T1, Amyloid-beta precursor protein (Homo sapiens, UniProt P05067)
Description: Inhibition of amyloid beta (1 to 42) aggregation (unknown origin) by thioflavin T fluorescence method

[2] = biological target: Beta-secretase 1 (Homo sapiens) (UniProt P56817); assay: Inhibition of human recombinant BACE1 using M-2420 as a substrate at 3 uM […]
Beta-secretase 1 (Homo sapiens), sequence (P56817 whole entry): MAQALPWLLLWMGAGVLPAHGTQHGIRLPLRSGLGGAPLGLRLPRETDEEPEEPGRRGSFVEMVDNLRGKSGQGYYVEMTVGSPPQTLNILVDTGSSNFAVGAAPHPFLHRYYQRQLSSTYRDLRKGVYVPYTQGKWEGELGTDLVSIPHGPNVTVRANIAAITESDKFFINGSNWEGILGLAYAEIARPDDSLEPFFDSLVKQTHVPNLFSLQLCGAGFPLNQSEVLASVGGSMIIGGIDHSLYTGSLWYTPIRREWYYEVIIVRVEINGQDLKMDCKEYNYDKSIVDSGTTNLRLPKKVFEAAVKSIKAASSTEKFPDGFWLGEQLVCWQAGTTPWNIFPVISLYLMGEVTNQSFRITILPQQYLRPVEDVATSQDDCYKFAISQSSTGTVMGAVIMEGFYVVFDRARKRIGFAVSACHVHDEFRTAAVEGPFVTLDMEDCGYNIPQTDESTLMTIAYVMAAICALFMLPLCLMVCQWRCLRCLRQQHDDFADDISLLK

[3] = biological target: T2, Cholinesterase (Homo sapiens, UniProt P06276)
T2 sequence (P06276 whole entry): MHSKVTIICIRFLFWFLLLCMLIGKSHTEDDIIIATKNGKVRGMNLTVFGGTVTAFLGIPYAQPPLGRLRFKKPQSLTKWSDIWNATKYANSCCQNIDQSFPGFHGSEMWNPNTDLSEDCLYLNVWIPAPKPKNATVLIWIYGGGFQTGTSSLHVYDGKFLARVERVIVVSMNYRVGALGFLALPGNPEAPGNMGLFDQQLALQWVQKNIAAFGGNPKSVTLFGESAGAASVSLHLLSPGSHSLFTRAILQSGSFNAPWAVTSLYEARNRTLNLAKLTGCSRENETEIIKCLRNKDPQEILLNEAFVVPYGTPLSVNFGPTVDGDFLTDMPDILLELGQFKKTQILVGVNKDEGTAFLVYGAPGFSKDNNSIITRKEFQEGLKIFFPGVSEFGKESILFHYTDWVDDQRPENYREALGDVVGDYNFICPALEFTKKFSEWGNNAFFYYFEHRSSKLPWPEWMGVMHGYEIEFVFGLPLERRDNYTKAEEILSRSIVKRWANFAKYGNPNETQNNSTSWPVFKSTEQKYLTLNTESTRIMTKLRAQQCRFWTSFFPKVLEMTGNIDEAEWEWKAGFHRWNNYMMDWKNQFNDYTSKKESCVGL
Description: Inhibition of human recombinant BuChE by Ellman's assay

[4] = biological target: T3, Acetylcholinesterase (Homo sapiens, UniProt P22303); assay: Inhibition of human recombinant AChE by Ellman's assay
T3 sequence (P22303 whole entry): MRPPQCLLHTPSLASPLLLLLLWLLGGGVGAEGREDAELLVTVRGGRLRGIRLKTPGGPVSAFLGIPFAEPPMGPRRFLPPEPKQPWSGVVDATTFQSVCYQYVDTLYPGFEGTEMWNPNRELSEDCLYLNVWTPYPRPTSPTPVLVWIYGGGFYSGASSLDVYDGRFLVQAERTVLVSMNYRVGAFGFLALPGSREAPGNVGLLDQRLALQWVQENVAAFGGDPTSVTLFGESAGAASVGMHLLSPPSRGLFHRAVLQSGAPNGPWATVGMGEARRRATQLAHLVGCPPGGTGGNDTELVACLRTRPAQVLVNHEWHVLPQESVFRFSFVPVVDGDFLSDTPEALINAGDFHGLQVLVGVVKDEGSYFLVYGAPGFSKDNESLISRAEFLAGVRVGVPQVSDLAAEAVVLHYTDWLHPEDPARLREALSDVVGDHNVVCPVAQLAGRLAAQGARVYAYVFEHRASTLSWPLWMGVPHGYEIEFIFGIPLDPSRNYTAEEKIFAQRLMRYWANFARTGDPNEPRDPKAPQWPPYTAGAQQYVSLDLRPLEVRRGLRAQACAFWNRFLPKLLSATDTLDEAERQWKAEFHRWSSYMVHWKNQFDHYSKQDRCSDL

[5] = biological target: T1, Amyloid-beta precursor protein; assay: Inhibition of amyloid beta (1 to 42) aggregation (unknown origin) at 10 uM by thioflavin T fluorescence method
[6] = test system: HEK293; assay: Cytotoxicity against HEK293 cells assessed as reduction in cell viability up to 10 uM by MTT assay; format: cell-based; settings: human
[7] = organism: Homo sapiens; assay: Selectivity ratio of IC50 for human recombinant AChE to IC50 for human recombinant BuChE
[8] = organism: Gallus gallus; assay: Reduction in amyloid beta40 secretion in embryonic chicken primary telencephalon neurons; format: functional
[9] = organism: Gallus gallus; assay: Reduction in amyloid beta38 secretion in embryonic chicken primary telencephalon neurons; format: functional
[10] = Cytotoxicity against embryonic chicken primary telencephalon neurons at 25 to 50 uM; set-up: species or system Gallus gallus
[11] = organism: Gallus gallus; assay: Reduction in amyloid beta42 secretion in embryonic chicken primary telencephalon neurons; format: functional
[12] = biological target: T3, Acetylcholinesterase; assay: Inhibition of human recombinant AChE at 67 uM by Ellman's assay
[13] = organism: Homo sapiens; assay: Selectivity ratio of IC50 for human recombinant BuChE to IC50 for human recombinant AChE
[14] = biological target: T2, Cholinesterase; assay: Inhibition of human recombinant BuChE hydrolyzing activity at 67 uM by Ellman's assay
[15] = biological target: T2, Cholinesterase; assay: Inhibition of human recombinant BuChE at 67 uM by Ellman's assay

T1 sequence (P05067 whole entry): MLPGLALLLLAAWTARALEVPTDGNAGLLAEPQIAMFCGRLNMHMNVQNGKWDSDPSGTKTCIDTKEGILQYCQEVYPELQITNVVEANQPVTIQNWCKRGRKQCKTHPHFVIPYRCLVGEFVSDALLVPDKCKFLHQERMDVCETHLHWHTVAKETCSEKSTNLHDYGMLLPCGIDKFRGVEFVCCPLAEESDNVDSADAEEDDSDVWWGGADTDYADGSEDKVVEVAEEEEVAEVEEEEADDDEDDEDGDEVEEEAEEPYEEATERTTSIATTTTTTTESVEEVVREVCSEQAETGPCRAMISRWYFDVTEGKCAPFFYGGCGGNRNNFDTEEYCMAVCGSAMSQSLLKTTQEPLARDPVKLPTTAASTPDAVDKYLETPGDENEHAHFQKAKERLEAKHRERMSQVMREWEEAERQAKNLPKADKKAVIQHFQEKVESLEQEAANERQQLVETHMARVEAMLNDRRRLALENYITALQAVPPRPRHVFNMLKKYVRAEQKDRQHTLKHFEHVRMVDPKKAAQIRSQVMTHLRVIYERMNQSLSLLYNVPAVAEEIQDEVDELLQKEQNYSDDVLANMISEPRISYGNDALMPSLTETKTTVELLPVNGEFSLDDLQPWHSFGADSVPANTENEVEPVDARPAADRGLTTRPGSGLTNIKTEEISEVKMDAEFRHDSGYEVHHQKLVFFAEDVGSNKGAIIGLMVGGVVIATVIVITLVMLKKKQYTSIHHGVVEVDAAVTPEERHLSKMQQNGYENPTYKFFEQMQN

Row | Compound | IC50 [1] | inhibition [2] | IC50 [3] | IC50 [4] | inhibition [5] | Activity [6] | Ratio IC50 [7] | Activity [8] | Activity [9] | Activity [10] | Activity [11] | inhibition [12] | Ratio IC50 [13] | inhibition [14] | inhibition [15]
1 | CCN(CCCCCCNC1=CC(=O)C(NCCCCCCN(CC)Cc2ccccc2OC)=CC1=O)Cc1ccccc1OC [MEMOQUIN] | 5.93 µM | – | – | – | – | – | – | – | – | – | – | – | – | – | –
2 | C[C@@H](C(=O)NCCCNCCCNC1=CC(=O)C(NCCCNCCCNC(=O)[C@H](C)c2ccc(-c3ccccc3)c(F)c2)=CC1=O)c1ccc(-c2ccccc2)c(F)c1 | 4.77 µM | 20% | 9.98 µM | 27.8 µM | 87.2% | Non-toxic | – | – | – | – | – | – | – | – | –
3 | C[C@H](C(=O)NCCCNCCCNC1=CC(=O)C(NCCCNCCCNC(=O)[C@@H](C)c2ccc(-c3ccccc3)c(F)c2)=CC1=O)c1ccc(-c2ccccc2)c(F)c1 | 4.43 µM | 20% | 7.77 µM | 2.89 µM | > 90% | Toxic | – | – | – | – | – | – | – | – | –
4 | O=C(Cc1ccccc1Nc1c(Cl)cccc1Cl)NCCCNCCCNC1=CC(=O)C(NCCCNCCCNC(=O)Cc2ccccc2Nc2c(Cl)cccc2Cl)=CC1=O | 3.15 µM | 20% | 0.36 µM | 15.4 µM | 74.9% | Non-toxic | 42.8 | – | – | – | – | – | – | – | –
5 | CC(C(=O)NCCCNCCCNC1=CC(=O)C(NCCCNCCCNC(=O)C(C)c2ccc(-c3ccccc3)c(F)c2)=CC1=O)c1ccc(-c2ccccc2)c(F)c1 (racemic) | – | 20% | – | – | > 90% | – | – | – | – | – | – | – | – | – | –
6 | CC(C(=O)NCCCCCCNC1=CC(=O)C(NCCCCCCNC(=O)C(C)c2ccc(-c3ccccc3)c(F)c2)=CC1=O)c1ccc(-c2ccccc2)c(F)c1 (stereo not drawn) | – | 20% | > 20 µM | > 20 µM | – | – | – | – | – | – | – | – | – | – | –
7 | COc1ccc2c(c1)c(CC(=O)NCCCNCCCNC1=CC(=O)C(NCCCNCCCNC(=O)Cc3c(C)n(C(=O)c4ccc(Cl)cc4)c4ccc(OC)cc34)=CC1=O)c(C)n2C(=O)c1ccc(Cl)cc1 | 6.11 µM | 20% | 18.7 µM | 10.3 µM | 80.1% | – | – | – | – | – | – | – | – | – | –
8 | CC(C(=O)NCCCNCCCNC1=CC(=O)c2ccccc2C1=O)c1ccc(-c2ccccc2)c(F)c1 (stereo not drawn) | 6.88 µM | 20% | 16.4 µM | 107 µM | 76.4% | Non-toxic | – | Active | Active | Toxic | Active | – | – | – | –
9 | CC1=C(CC(=O)NCCCNCCCNC2=CC(=O)C(NCCCNCCCNC(=O)CC3=C(C)/C(=C\c4ccc([S+](C)[O-])cc4)c4ccc(F)cc43)=CC2=O)c2cc(F)ccc2/C1=C/c1ccc([S+](C)[O-])cc1 (stereo not drawn) | 8.18 µM | 20% | 14.7 µM | 9.54 µM | 55% | – | – | – | – | – | – | – | – | – | –
10 | CC(C(=O)NCCCNC1=CC(=O)C(NCCCNC(=O)C(C)c2ccc(-c3ccccc3)c(F)c2)=CC1=O)c1ccc(-c2ccccc2)c(F)c1 (stereo not drawn) | – | 20% | 116 µM | > 20 µM | 12.7% | – | – | – | – | – | – | – | – | – | –
11 | CC(C)Cc1ccc(C(C)C(=O)NCCCNCCCNC2=CC(=O)C(NCCCNCCCNC(=O)C(C)c3ccc(CC(C)C)cc3)=CC2=O)cc1 (stereo not drawn) | 4.83 µM | 20% | 22.5 µM | 0.6 µM | 82.6% | – | – | – | – | – | – | 26.3% | 37.5 | 70% | < 10%
